Assay results reported in article PMC2898741 (Biochemistry, 2009).

What was measured:
[1] = molecular target: T1, riboflavin binding protein (RfBP) (Gallus gallus, UniProt P02752)
T1 sequence (P02752 18-238): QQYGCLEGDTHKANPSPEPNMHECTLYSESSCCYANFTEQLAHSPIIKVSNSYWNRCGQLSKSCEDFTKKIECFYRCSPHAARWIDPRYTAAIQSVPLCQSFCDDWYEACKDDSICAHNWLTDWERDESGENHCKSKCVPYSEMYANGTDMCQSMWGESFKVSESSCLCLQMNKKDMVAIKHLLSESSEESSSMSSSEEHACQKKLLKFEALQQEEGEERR

ribonuclease A (RNase) = molecular target: T2, ribonuclease A (RNase) (Bos taurus, UniProt P61823); assay type: binding
T2 sequence (P61823 27-150): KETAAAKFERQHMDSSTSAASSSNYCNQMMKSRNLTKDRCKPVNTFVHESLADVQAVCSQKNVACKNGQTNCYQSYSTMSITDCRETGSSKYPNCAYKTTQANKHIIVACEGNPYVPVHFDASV

[2] = molecular target: T1, riboflavin binding protein (RfBP); remark: listed apart in the source

Compound | absorbance and fluorescence titration; stopped-flow; DTNB protection [1] | absorbance and fluorescence titration; DTNB protection (ribonuclease A (RNase)) | absorbance (252 nm) and fluorescence titration; DTNB protection [2]
C[As](O)O [MMA] | PSAO and MMA bind almost quantitatively to reduced unfolded RfBP |  | 
O[As](O)O [arsenite] |  | Figure 7A demonstrates the binding of arsenite to reduced bovine pancreatic RNase using absorbance and fluorescence quenching | PSAO and arsenite also bind to reduced RfBP with a strong fluorescence quenching
